## O=C(O)/C=C/C(=O)O
In acetone, 279 K
  solubility (mole fraction): 0.00344
In acetone, 285 K
  solubility (mole fraction): 0.00419
In acetone, 291 K
  solubility (mole fraction): 0.00498
In acetone, 297 K
  solubility (mole fraction): 0.00583
In acetone, 303 K
  solubility (mole fraction): 0.00673
In acetone, 309 K
  solubility (mole fraction): 0.00768
In acetone, 315 K
  solubility (mole fraction): 0.00867
In acetone, 321 K
  solubility (mole fraction): 0.00972
In acetone, 327 K
  solubility (mole fraction): 0.0108
In acetone, 333 K
  solubility (mole fraction): 0.012
In ethanol, 279 K
  solubility (mole fraction): 0.0126
In ethanol, 285 K
  solubility (mole fraction): 0.014
In ethanol, 291 K
  solubility (mole fraction): 0.0157
In ethanol, 297 K
  solubility (mole fraction): 0.0178
In ethanol, 303 K
  solubility (mole fraction): 0.0205
In ethanol, 309 K
  solubility (mole fraction): 0.0233
In ethanol, 315 K
  solubility (mole fraction): 0.0267
In ethanol, 321 K
  solubility (mole fraction): 0.0305
In ethanol, 327 K
  solubility (mole fraction): 0.0344
In ethanol, 333 K
  solubility (mole fraction): 0.0383
In ethanol, 343 K
  solubility (mole fraction): 0.0451
In isopropanol, 279 K
  solubility (mole fraction): 0.0109
In isopropanol, 285 K
  solubility (mole fraction): 0.0138
In isopropanol, 291 K
  solubility (mole fraction): 0.0169
In isopropanol, 297 K
  solubility (mole fraction): 0.0202
In isopropanol, 303 K
  solubility (mole fraction): 0.0236
In isopropanol, 309 K
  solubility (mole fraction): 0.0272
In isopropanol, 315 K
  solubility (mole fraction): 0.031
In isopropanol, 321 K
  solubility (mole fraction): 0.0349
In isopropanol, 327 K
  solubility (mole fraction): 0.0391
In isopropanol, 333 K
  solubility (mole fraction): 0.0435
In isopropanol, 342 K
  solubility (mole fraction): 0.0538
In isopropanol, 351 K
  solubility (mole fraction): 0.0656
In n-propanol, 279 K
  solubility (mole fraction): 0.00847
In n-propanol, 285 K
  solubility (mole fraction): 0.0103
In n-propanol, 291 K
  solubility (mole fraction): 0.0122
In n-propanol, 297 K
  solubility (mole fraction): 0.0143
In n-propanol, 303 K
  solubility (mole fraction): 0.0165
In n-propanol, 309 K
  solubility (mole fraction): 0.0189
In n-propanol, 315 K
  solubility (mole fraction): 0.0215
In n-propanol, 321 K
  solubility (mole fraction): 0.0243
In n-propanol, 327 K
  solubility (mole fraction): 0.0274
In n-propanol, 333 K
  solubility (mole fraction): 0.0306
In n-propanol, 339 K
  solubility (mole fraction): 0.0355
In n-propanol, 345 K
  solubility (mole fraction): 0.0398
In n-propanol, 351.8 K
  solubility (mole fraction): 0.0486
In water, 279 K
  solubility (mole fraction): 0.000136
In water, 285 K
  solubility (mole fraction): 0.000435
In water, 291 K
  solubility (mole fraction): 0.000813
In water, 297 K
  solubility (mole fraction): 0.00125
In water, 303 K
  solubility (mole fraction): 0.00171
In water, 309 K
  solubility (mole fraction): 0.00221
In water, 315 K
  solubility (mole fraction): 0.00265
In water, 321 K
  solubility (mole fraction): 0.00328
In water, 327 K
  solubility (mole fraction): 0.00415
In water, 333 K
  solubility (mole fraction): 0.00541
In water, 339 K
  solubility (mole fraction): 0.00624
In water, 353 K
  solubility (mole fraction): 0.00884

Reference: BigSolDB 2.1
